In US20120321584A1, “PROCESSES FOR PREPARING AMINE SALTS OF KMUP-3 AND USE THEREOF” (KAOHSIUNG MEDICAL UNIVERSITY, priority 2011, published 2012):

Key:
PKCα = PKCα translocation of beating left atrium; type: cell-based, guinea-pig; conditions: KMUP-3 1 μM, left atrium cells
Procedure: To determine the effect of KMUP-3 or KMUP-3 amine salt on PKCa translocation, isolated left beating atrium was incubated with KMUP-3 or KMUP-3 amine salt for 30 minutes (0.1-10 μM). In brief, frozen left atrium was pulverized to a fine powder at the temperature of liquid nitrogen for preparation of cytosolic and membrane fractions. Isolated left atrium tissues were then homogenized by a sonicator (XL-2020, Heat Systems Ultrasonic, Plainview, N.Y., USA) at 4 in 1 ml of homogenization buffer containing 20 mM Tris-HCl (pH 7.5), 1 mM dithiothreitol (DTT), 5 mM EGTA, 2 mM EDTA, 0.5 mM PMSF, 20 μM leupeptin and 20 μM aprotinin. The cytosol fractions were obtained by collecting the supernatants after centrifuging the cells at 100,000×g for 45 minutes at 4. The pellets were resonicated in the homogenizing buffer with 1% Triton X-100, centrifuged again at 100,000×g for 45 minutes at 4, and the supernatants collected as membrane fractions. The extracts for cytosol and membrane fractions were denatured by heating at for 10 minutes in sampling buffer, and an aliquot containing 20 μg of total protein was subjected to a 10% SDS-polyacrylamide gel electrophoresis. […] Protein was detected with horseradish peroxidase (HRP) conjugated secondary antibody (BD Transduction Laboratories). […] The immunoreactive bands were detected by chemiluminescence (ECL) reagents (PerkinElmer Life Sciences, Inc).

[1] = Hemodynamic measurements in anesthetized rats (LVSP, dP/dt, MABP, HR); type: in vivo, Wistar rats
Procedure: Hemodynamic measurements were carried out in male Wistar rats weighting 300˜350 g, anesthetized with pentobarbital sodium (40 mg kg^−1, i.p.). In brief, polyethylene tubing (PE50) was placed in the trachea to keep the airway patent, and rats continued to breathe spontaneously. Subsequently, rats were used to record hemodynamic and cardiovascular function. Vascular catheters (PE50) were placed in the femoral arteries to measure mean arterial blood pressure (MABP) and heart rate (HR). Changes of MABP and HR caused by KMUP-3 or KMUP-3 amine salt were recorded from the femoral artery with a pressure transducer (Gould, Model P50, U.S.A.), connected with a Pressure Processor Amplifier (Gould, Model 13-4615-52, U.S.A.). A femoral vein was used for intravenous administration of KMUP-3 or KMUP-3 amine salt. A specialized transducer tip catheter was placed in the right carotid artery and advanced into the left ventricle of the heart for measurement of left ventricular pressure (LVSP) or contractility; dP/dt at 50 mm Hg, an index of cardiac contractility, was derived from the left ventricular pressure trace; post-hoc vascular resistance was calculated as mean arterial blood pressure/peripheral cardiac output (MABP/PCO). Body temperature was monitored throughout the experiment and maintained between 37 and 37.5° C. by using a heating pad.
Each dose of active drugs was administered as a 20-min infusion in a series of escalating doses dissolved in a 5% dextrose water vehicle. […] KMUP-3 HCl or KMUP-3 amine salt were infused at 0.03, 0.05, and 0.075 μg/kg/20 min for the measurement of FABP, intraperitoneally injected at 0.03, 0.05 and 0.1 mg/kg for the measurement of MABP and HR and infused by intravenous injection for 2 min at 0.5, 1.0, 3.0 mg/kg dissolved in 5% dextrose water vehicle (2 ml) for the measurement of LV systolic pressure (LVSH), ABP, dP/dt, and HR. The primary hemodynamic variables were computed using commercial software and a signal processing workstation. Animals were randomly divided into one of six treatment or vehicle groups. After the completion of the surgical protocol, animals were allowed to stabilize for 1 h, and baseline data were collected at 5-min intervals for 30 min before the treatment.

[2] = anesthetized rats, intravenous injection 0.5-3 mg/kg within 2 min
[3] = intra-peritoneal injection 0.03-0.1 mg/kg
[4] = intravenous perfusion 0.03-0.075 μg/kg/min×20 min

Cn1c(=O)c2c(ncn2CCN2CCN(c3ccc([N+](=O)[O-])cc3)CC2)n(C)c1=O [KMUP-3, 7-[2-[4-(4-nitrobenzene)piperazinyl]ethyl]-1,3-dimethylxanthine]
significantly increased: Translocation of PKCα from cytosol to membrane (PKCα)
dose-dependently increased: LVSP (left ventricular systolic pressure) [1, 2] | MABP (mean arterial blood pressure) [1, 2] | dP/dt [1, 2] | HR [1, 3] | MABP [1, 3] | HR [1, 4] | MABP [1, 4]
